Reference: publication PMC8405607 (British Journal of Cancer, 2021)
Several values for one entry are separate records, joined by “and”; a condition that tells them apart may be missing. Equal values may be shown once. Read-outs that look alike come from different tables or passages of the source.

Key:
SJSA-1 tumours = experiment: efficacy in subcutaneous SJSA-1 tumour-bearing nude mice; format: in vivo, mouse
Description: All animal experiments were performed according to procedures covered by permit number BS-1975 issued by the Cantonal Veterinary Office, Basel, Switzerland, and in strict adherence to the Federal Animal Protection Act and the Federal Animal Protection Code. Female athymic nude mice (Hsd:Athymic Nude-Foxn1nu, 7–8 weeks old, 20–22 g) were obtained from Envigo (Germany). All animals were housed in a pathogen-controlled environment with access to food and water ad libitum, and were identified with transponders.

[1] = population PK model (2-compartment, nonlinear mixed-effect); format: in vivo, human; conditions: for Vd/F: human, plasma, oral
Description: A total of 1919 observations (924 plasma PK, 717 platelet, and 278 GDF-15 measurements) and 20 platelet transfusion events derived from 46 patients were included in the dataset (data cutoff, January 2016). […] S1. The equations for the respective models are provided in the Supplementary Material (Supplementary Data). Models were evaluated based on the change in the Akaike’s information criterion (AIC) value, the convergence of the SAEM algorithm, the precision of the parameter estimates (NLME derived % relative standard error [RSE%]) and decreases in IIV and residual variability. Diagnostic plots were used to evaluate model adequacy, including evaluation of observations versus population and individual predicted (IPRED), and the distributions of conditional weighted residuals (CWRES) or normalised prediction distribution error (NPDE) versus time/observations or over time plots (Supplementary Figs. S2–S4). The predictive performance of the final models was evaluated by simulating 500 datasets using parameter estimates (fixed and random effects) and plotting a visual predictive check (Supplementary Fig. S5). For serum GDF-15, serum concentration levels above the upper limit of quantification (>50,000 pg/mL) were handled as right-censored data.

GDF-15 = experiment: indirect response PK/PD model of serum GDF-15; format: in vivo, human
Text: A total of 1919 observations (924 plasma PK, 717 platelet, and 278 GDF-15 measurements) and 20 platelet transfusion events derived from 46 patients were included in the dataset (data cutoff, January 2016). […] We used the stochastic approximation of the expectation-maximisation (SAEM) algorithm[13] implemented in the Monolix software (version 4.3.2, Lixoft) to estimate the fixed (population-level typical values) and random (inter-individual variability) effects for each model parameter and a residual error.
A semi-mechanistic model mimicking hematopoietic cell maturation and regulation was developed to describe the time course of platelet kinetics and drug action on immature cells and modified from Friberg et al.[14] […]
Models were evaluated based on the change in the Akaike’s information criterion (AIC) value, the convergence of the SAEM algorithm, the precision of the parameter estimates (NLME derived % relative standard error [RSE%]) and decreases in IIV and residual variability. […] The predictive performance of the final models was evaluated by simulating 500 datasets using parameter estimates (fixed and random effects) and plotting a visual predictive check (Supplementary Fig. S5). For serum GDF-15, serum concentration levels above the upper limit of quantification (>50,000 pg/mL) were handled as right-censored data. […]

[2] = human, in vivo
Description: The protocol allowed switching to one or more of three alternative regimens; of these, the intermittent dosing regimen of 3qw for 2 weeks on/1 week off was investigated.
Safety was assessed according to the National Cancer Institute Common Terminology Criteria for Adverse Events (NCI-CTCAE) v4.03. […] Fresh biopsies were collected on day 8 of cycle 1 along with a matching PK sample (6 h ± 2 h post-dose).

[3] = system: p53 target genes in SJSA-1 tumours; experiment: PK/PD experiment in SJSA-1 tumour-bearing mice (plasma exposure, p53 target gene mRNA); conditions: 100 mg/kg
Description: For PK/PD experiments, animals were randomised into groups of three, and tissue samples were collected at 0, 1, 3, 8, 16, 24 and 48 h. At the times indicated, animals were anaesthetised by exposure to 2–3% v/v isoflurane in medical oxygen.
Subcutaneous SJSA-1, 778 and LP6 tumours were induced by injecting tumour cells expanded in vitro into the right flank of nude mice. […] The tumours were excised, weighed and rapidly frozen in liquid nitrogen. Later, they were cryogenically dry pulverised using the CryoPrep™ system (model CP-02, Covaris).
The total RNA was purified from cell pellets using the QIAshredder (cat # 79654, Qiagen) and RNeasy Mini Kit (74106, Qiagen) according to the manufacturer’s instructions, with the exception that no DNA digestion was performed. Total RNA was quantitated using the spectrophotometer ND-1000 Nanodrop®. Quantitative reverse transcriptase PCR (qRT-PCR) was set up in triplicate per sample using either the One-Step RT qPCR Master Mix Plus (RT-QPRT-032X, Eurogentec) or the iTaq™ Universal Probes One-Step Kit (#1725141), with primers from TaqMan Gene Expression assays (20 × probe dye FAM™ [or VIC]-TAMRA [or MGB]; Applied Biosystems), including control primers (GUS-β 4310888E-1012026) and primers for the target genes (CDKN1A Hs00355782_m1; BBC3 Hs00248075_m1; MDM2 Hs01066930_m1). Alternatively, we performed a multiplex gene expression analysis on 104 p53 target genes with the NanoString assay.

COc1cc2c(cc1OC(C)C)[C@H](c1ccc(Cl)cc1)N(c1ccc(N(C)C[C@H]3CC[C@H](N4CCN(C)C(=O)C4)CC3)cc1)C(=O)C2 [CGM097]
tumour growth reduced compared to vehicle (SJSA-1 tumours; 25 mg/kg daily): 50%
T/C (SJSA-1 tumours; 50 mg/kg daily, stable disease): 3%
tumour regression (SJSA-1 tumours; 100 mg/kg daily, after 10 days of treatment): 65%
Vd/F ([1]; population estimate, read-out: V1/F, Apparent central volume of distribution): 92.6 L
Vd/F ([1]; read-out: Vc/F, apparent central volume of distribution, population value): 67 L
CL/F, Apparent clearance ([1]; population estimate): 1.62 L/h
Ka, First-order absorption rate constant ([1]; population estimate): 2.05 h⁻¹
Tlag, Absorption lag-time ([1]; population estimate): 0.39 h and 0.383 h
GDF-15 level prior to the next treatment cycle (GDF-15; intermittent 2 weeks on/1 week off dosing): return of GDF-15 level to baseline
Sg, Drug potency (GDF-15 production) (GDF-15; population estimate): 0.00078 mL/ng
ALT increased all grades, suspected related to study drug [2]: 5 (10) n %
AST increased all grades, suspected related to study drug [2]: 5 (10) n %
Abdominal pain upper all grades, suspected related to study drug [2]: 6 (12) n %
Anaemia all grades, suspected related to study drug [2]: 8 (16) n %
Anaemia grade 3 or 4, suspected related to study drug [2]: 4 (7.8) n %
Asthenia all grades, suspected related to study drug [2]: 7 (14) n %
Blood CPK increased all grades, suspected related to study drug [2]: 6 (12) n %
Decreased appetite all grades, suspected related to study drug [2]: 9 (18) n %
Diarrhoea all grades, suspected related to study drug [2]: 11 (22) n %
Dizziness all grades, suspected related to study drug [2]: 5 (10) n %
Dysgeusia all grades, suspected related to study drug [2]: 7 (14) n %
Granulocytopenia grade 3 or 4, suspected related to study drug [2]: 1 (2.0) n %
Hyperlipasaemia grade 3 or 4, suspected related to study drug [2]: 1 (2.0) n %
Hyperlipidaemia grade 3 or 4, suspected related to study drug [2]: 1 (2.0) n %
Hypoalbuminemia all grades, suspected related to study drug [2]: 5 (10) n %
Leukopenia grade 3 or 4, suspected related to study drug [2]: 4 (7.8) n %
Lipase increased all grades, suspected related to study drug [2]: 6 (12) n %
Lipase increased grade 3 or 4, suspected related to study drug [2]: 5 (9.8) n %
Lymphocyte count decreased grade 3 or 4, suspected related to study drug [2]: 1 (2.0) n %
Lymphopenia all grades, suspected related to study drug [2]: 10 (20) n %
Nausea grade 3 or 4, suspected related to study drug [2]: 2 (3.9) n %
Neutropenia all grades, suspected related to study drug [2]: 11 (22) n %
Neutrophil count decreased grade 3 or 4, suspected related to study drug [2]: 2 (3.9) n %
Proteinuria grade 3 or 4, suspected related to study drug [2]: 1 (2.0) n %
White blood cell count decreased grade 3 or 4, suspected related to study drug [2]: 4 (7.8) n %
anaemia, any grade AE [2]: 18 n
fatigue, any grade AE [2]: 18 n
haematologic AESIs regardless of study drug relationship [2]: 64.7%
haematologic AESIs suspected to be treatment-related [2]: 51%
nausea, any grade AE [2]: 24 n
patients with at least one AE leading to study drug discontinuation [2]: five
patients with at least one grade 4 AE [2]: 10 patients
patients with grade 3 AEs regardless of study drug relationship [2]: Twenty-five
patients with grade 3 AEs suspected to be study drug-related [2]: 11 patients
patients with grade 4 AEs regardless of study drug relationship [2]: 12 patients
thrombocytopenia AESI [2]: 43.1%
thrombocytopenia, any grade AE [2]: 22 n
vomiting, any grade AE [2]: 18 n
PUMA induction, Emax ([3]; SJSA-1 tumours): 19 fold
p21 induction, maximum effect Emax ([3]; SJSA-1 tumours): 41 fold
HDM2 increase in expression ([3]; SJSA-1 tumours, compared with p21 and PUMA): lowest increase
time at which pharmacological activity reached basal levels ([3]; post treatment): 48 h
